Assay results reported in patent publication US20230398098A1, “TOPICAL DETOMIDINE FORMULATIONS” (Clexio Biosciences Ltd., priority 2020, published 2023).
Counter-ions that a name gives are not always drawn.

Tests used:
Type in all cases: physicochemical
[1] = Oxidation with potassium permanganate in aqueous solution, HPLC of RRT = 0.38; conditions: 3 hours after solution preparation
Procedure: A further sample of material from Table 6, Batch #v was reacted with potassium permanganate in aqueous solution. RRT=0.38 was found in the reaction product at 0.14% at 3 hours after solution preparation.

[2] = Aldehyde impurity assessment: aqueous stock solutions exposed to air, HPLC of RRT = 0.38; conditions: 7.4 wt % detomidine HCl in water; for RRT = 0.38 content at 2 years: exposed to air at room temperature; for Initial RRT = 0.38 content: time zero
Procedure: Therefore, for further identification of the elusive impurity, new HPLC protocols for assaying detomidine HCl were developed. One protocol (“HPLC Protocol A”) comprised using a SunFire C8 column, 100Å, 3.5 μm, 4.6×150 mm column with an initial mobile phase of 70% Ammonium Phosphate buffer solution, pH 7.9 and 30% Acetonitrile, at a flow rate of 1.0 mL/min and UV detection at 220 nm. To remove late eluting peaks, the flush gradient shown in Table 5 was applied after each run. This HPLC protocol allowed for a resolution factor of 3.9 between detomidine and the unidentified impurity. The quantitation level (QL) for impurities and degradation products is 0.025%. The detection level (DL) for impurities and degradation products is 0.01%.
Stock solutions of 7.4 wt % detomidine HCl in water were prepared using material from Table 6, Batch #iv and v and the samples were then kept exposed to air at room temperature for 2 years.

[3] = Hydration study of solid forms by DVS analysis
Procedure: Melting points (m.p.) of the intermediate detomidine free base and hydrochloride of Sample 5 measured in open capillary corresponded with the published literature and the DSC data and are presented in Table 4. In order to evaluate effect of humidity on different forms of detomidine, a hydration study was performed. Samples of detomidine free base and hydrochloride salt were subjected to DVS analysis. These observations are in accordance with the DVS results shown in FIGS. 1 and 2, for detomidine free base and detomidine HCl, respectively.
During the dehydration cycle, the monohydrate began to lose water at RH˜10% and converted into the anhydrate at RH=0%.

[4] = Solubility of solid forms in water (observation)

## Cc1cccc(Cc2cnc[nH]2)c1C.Cl.O [Batch v]
[1]
  RRT=0.38 in the reaction product: 0.14%
[2]; listed as v
  RRT = 0.38 content at 2 years: 0.02%
  Initial RRT = 0.38 content: not detectable

## Cc1cccc(Cc2c[nH]cn2)c1C [detomidine HCl monohydrate]
[3]; dehydration cycle, DVS
  RH at which the monohydrate began to lose water: ~10%
  RH at which the monohydrate converted into the anhydrate: 0%

## Cc1cccc(Cc2c[nH]cn2)c1C [anhydrous detomidine HCl]
[3]; DVS
  RH at which the anhydrate absorbs water / transforms completely into the monohydrate: 30-50%
  RH at which the anhydrate did not absorb water: < 30%

## Cc1cccc(Cc2cnc[nH]2)c1C.Cl.O [Batch iv]
[2]; listed as iv
  RRT = 0.38 content at 2 years: 1%
  Initial RRT = 0.38 content: 0.2%

## Cc1cccc(Cc2c[nH]cn2)c1C [detomidine hydrochloride]
[4]
  solubility in water: soluble

## Cc1cccc(Cc2c[nH]cn2)c1C [detomidine free base, 4-[(2,3-dimethylphenyl)methyl]-1H-Imidazole]
[4]
  solubility in water: insoluble in water
[3]; DVS, 24.4° C. (FIG. 1)
  hygroscopicity: non-hygroscopic
[3]; at relative humidity (RH)>50%
  water absorbed: more than 1%

## Cc1cccc(Cc2c[nH]cn2)c1C.Cl [Sample 2]
[3]; hydration of the anhydrous form
  water level absorbed, cKF: 7.7%
